Laboratory results taken from the CheMixHub drug solubility set.

Test: xn = mol fraction of the nth substance listed, in the solute-free solvent

Nc1ncc(Br)nc1Br + OCCO + O
solubility (g/100 g solution)
Conditions	278.15 K	283.15 K	288.15 K	293.15 K	298.15 K	303.15 K	308.15 K	313.15 K	318.15 K	323.15 K
x2 = 0.03125	0.00637	0.0078	0.00922	0.0109	0.0127	0.0144	0.0164	0.0186	0.0208	0.0231
x2 = 0.06767	0.0106	0.0129	0.0152	0.018	0.0209	0.0235	0.0267	0.0302	0.0336	0.0373
x2 = 0.1107	0.0164	0.02	0.0235	0.0276	0.032	0.036	0.0408	0.0459	0.0511	0.0566
x2 = 0.1622	0.0238	0.0288	0.0338	0.0398	0.046	0.0518	0.0585	0.0657	0.0731	0.0809
x2 = 0.225	0.0307	0.0375	0.0446	0.0526	0.0606	0.0684	0.0774	0.0866	0.0965	0.108
x2 = 0.3034	0.0394	0.0471	0.0562	0.0663	0.0766	0.0874	0.0983	0.111	0.124	0.138
x2 = 0.4038	0.0467	0.0558	0.0667	0.0788	0.0911	0.104	0.118	0.133	0.148	0.164
x2 = 0.5373	0.0508	0.0614	0.0739	0.0875	0.103	0.116	0.132	0.148	0.165	0.184
x2 = 0.7232	0.0528	0.0647	0.077	0.0912	0.106	0.12	0.137	0.154	0.173	0.194

O=c1cc(CBr)c2ccccc2[nH]1 + CN1CCCC1=O + O
solubility (g/100 g solution)
Conditions	278.15 K	283.15 K	288.15 K	293.15 K	298.15 K	303.15 K	308.15 K	313.15 K	318.15 K
x2 = 0.0198	0.0293	0.0392	0.0514	0.0682	0.0873	0.117	0.149	0.189	0.234
x2 = 0.04347	0.107	0.136	0.176	0.223	0.281	0.361	0.442	0.546	0.67
x2 = 0.07228	0.271	0.344	0.428	0.538	0.646	0.804	0.971	1.16	1.41
x2 = 0.1081	0.494	0.611	0.762	0.924	1.12	1.37	1.66	1.97	2.35
x2 = 0.1538	0.764	0.928	1.13	1.36	1.65	1.94	2.3	2.71	3.16
x2 = 0.2143	1.04	1.24	1.5	1.76	2.11	2.47	2.9	3.34	3.89
x2 = 0.2979	1.24	1.48	1.76	2.07	2.46	2.87	3.32	3.82	4.37
x2 = 0.421	1.38	1.62	1.91	2.24	2.57	2.99	3.44	3.93	4.47
x2 = 0.6207	1.42	1.64	1.9	2.19	2.5	2.89	3.26	3.7	4.17

O=c1cc(CBr)c2ccccc2[nH]1 + CCO + O
solubility (g/100 g solution)
Conditions	278.15 K	283.15 K	288.15 K	293.15 K	298.15 K	303.15 K	308.15 K	313.15 K	318.15 K
x2 = 0.04165	0.0134	0.0174	0.023	0.0295	0.038	0.0476	0.0598	0.0753	0.0924
x2 = 0.08908	0.0233	0.0297	0.037	0.0455	0.0569	0.0694	0.0854	0.104	0.123
x2 = 0.1436	0.0341	0.042	0.0509	0.0622	0.075	0.0906	0.106	0.127	0.151
x2 = 0.2068	0.0469	0.0559	0.0666	0.0787	0.0931	0.11	0.128	0.148	0.172
x2 = 0.2812	0.0609	0.0715	0.0837	0.0964	0.112	0.13	0.148	0.168	0.193
x2 = 0.3698	0.0732	0.0845	0.0974	0.111	0.128	0.145	0.163	0.184	0.209
x2 = 0.4772	0.0832	0.0948	0.109	0.123	0.138	0.157	0.176	0.196	0.221
x2 = 0.6101	0.0917	0.103	0.116	0.131	0.147	0.164	0.182	0.202	0.224
x2 = 0.7788	0.0963	0.108	0.12	0.134	0.15	0.165	0.182	0.201	0.219

CC1=NNC(=O)N(N=Cc2cccnc2)C1 + CN(C)C=O + CC(C)O
solubility (g/100 g solution)
Conditions	278.15 K	283.15 K	288.15 K	293.15 K	298.15 K	303.15 K	308.15 K	313.15 K	318.15 K
x2 = 0.1705	0.264	0.304	0.352	0.405	0.466	0.532	0.612	0.697	0.796
x2 = 0.354	0.455	0.512	0.588	0.68	0.777	0.896	1.02	1.15	1.3
x2 = 0.5522	0.614	0.694	0.802	0.91	1.04	1.18	1.33	1.5	1.69
x2 = 0.7668	0.771	0.871	0.998	1.13	1.29	1.47	1.65	1.85	2.1

CC1=NNC(=O)N(N=Cc2cccnc2)C1 + CS(C)=O + CC(C)O
solubility (g/100 g solution)
Conditions	293.15 K	298.15 K	303.15 K	308.15 K	313.15 K	318.15 K
x2 = 0.1614	0.482	0.555	0.623	0.721	0.847	0.956
x2 = 0.3392	0.992	1.11	1.25	1.39	1.57	1.77
x2 = 0.5359	1.42	1.59	1.78	2.05	2.32	2.58
x2 = 0.7549	1.8	2.01	2.28	2.59	2.91	3.28

COC(=O)Nc1nc2ccccc2[nH]1 + CCO + O
solubility (g/100 g solution)
Conditions	278.15 K	283.15 K	288.15 K	293.15 K	298.15 K	303.15 K	308.15 K	313.15 K	318.15 K
x2 = 0.0417	0.00112	0.00135	0.00165	0.00201	0.00246	0.00289	0.00343	0.00403	0.00475
x2 = 0.08923	0.00223	0.00272	0.0034	0.00411	0.00508	0.00599	0.00715	0.00849	0.01
x2 = 0.1435	0.00325	0.00396	0.00501	0.00619	0.00769	0.0092	0.0111	0.0133	0.0158
x2 = 0.2067	0.00379	0.00471	0.00609	0.00761	0.00949	0.0116	0.0142	0.0172	0.0207
x2 = 0.2813	0.00391	0.00497	0.00649	0.00846	0.0105	0.013	0.0162	0.0199	0.0243
x2 = 0.3701	0.00383	0.0049	0.00658	0.00849	0.011	0.0138	0.0174	0.0219	0.0271
x2 = 0.4762	0.00369	0.0048	0.00651	0.00862	0.0114	0.0146	0.0187	0.0237	0.0298
x2 = 0.6102	0.00358	0.00477	0.00664	0.00884	0.0118	0.0155	0.0202	0.0261	0.0332
x2 = 0.7803	0.0035	0.00477	0.0068	0.0092	0.0125	0.0167	0.0221	0.0289	0.0373

COC(=O)Nc1nc2ccccc2[nH]1 + CN(C)C=O + O
solubility (g/100 g solution)
Conditions	278.15 K	283.15 K	288.15 K	293.15 K	298.15 K	303.15 K	308.15 K	313.15 K	318.15 K
x2 = 0.02669	0.00314	0.0037	0.00435	0.00513	0.00608	0.0069	0.00793	0.00907	0.0104
x2 = 0.05816	0.0129	0.0149	0.017	0.0196	0.0227	0.0252	0.0284	0.0319	0.0358
x2 = 0.09552	0.0278	0.0343	0.0397	0.045	0.0511	0.0563	0.0627	0.0696	0.0773
x2 = 0.1411	0.0542	0.0604	0.0678	0.076	0.0856	0.0938	0.103	0.114	0.126
x2 = 0.1978	0.0795	0.0881	0.098	0.109	0.122	0.133	0.147	0.161	0.175
x2 = 0.2702	0.108	0.12	0.133	0.147	0.163	0.177	0.194	0.211	0.23
x2 = 0.3643	0.144	0.159	0.174	0.192	0.212	0.23	0.25	0.271	0.294
x2 = 0.4967	0.186	0.205	0.223	0.244	0.268	0.29	0.315	0.339	0.365
x2 = 0.6912	0.219	0.24	0.259	0.282	0.308	0.333	0.359	0.387	0.416

NC(N)=C([N+](=O)[O-])[N+](=O)[O-] + CS(C)=O + O=C1CCCC1
solubility (g/100 g solution)
Conditions	293.15 K	298.15 K	303.15 K	308.15 K	313.15 K	318.15 K	323.15 K	328.15 K	333.15 K
x2 = 0.1177	3.67	3.8	4.06	4.31	4.57	4.86	5.16	5.5	5.84
x2 = 0.2308	7.45	7.83	8.19	8.56	8.97	9.37	9.83	10.2	10.7
x2 = 0.3397	11.5	12.1	12.6	13	13.5	14	14.5	15	15.6
x2 = 0.4445	15.2	15.8	16.2	16.6	17.1	17.6	18.3	18.9	19.5
x2 = 0.5455	18.5	19.2	19.7	20.1	20.6	21.1	21.7	22.3	22.9
x2 = 0.6429	21.3	21.9	22.4	22.9	23.4	24	24.6	25.1	25.8
x2 = 0.7369	23.8	24.6	25	25.5	26.1	26.6	27.2	27.8	28.5
x2 = 0.8276	26	26.5	27	27.4	28.1	28.6	29.2	29.8	30.4
x2 = 0.9153	27.7	28.5	29	29.4	30	30.5	31.1	31.8	32.4
